In patent publication US4918079A, “Imidazole derivatives as 5-HT3 receptor antagonists” (Beecham Group p.l.c., priority 1987, dated 1990) one finds ED50 data, which are given here for one compound.

Where a name gives a salt, the structure may show the parent alone.

The assay deals with von Bezold-Jarisch reflex evoked by 5-HT. As to the kind of experiment: Antagonism of the von Bezold-Jarisch reflex evoked by 5-HT in the anaesthetised rat. It counts as in vivo. As to conditions: iv, male rats, urethane anaesthesia, 5-HT usually 6 μg/kg i.v., heart rate, read-out: ED50 (concentration required to reduce the 5-HT-evoked response to 50% of the control response). The method, then: Antagonism of the von Bezold-Jarisch reflex
The compounds were evaluated for antagonism of the von Bezold-Jarisch reflex evoked by 5-HT in the anaesthetised rat according to the following method:
Male rats 250≥350 g, were anaesthetised with urethane (1.25 g/kg intraperitoneally) and blood pressure and heart rate recorded as described by Fozard J. R. et al., J. Cardiovasc. Pharmacol. 2, 229-245 (1980). A submaximal dose of 5-HT (usually 6 μg/kg) was given repeatedly by the intravenous route and changes in heart rate quantified. Compounds were given intravenously and the concentration required to reduce the 5-HT-evoked response to 50% of the control response (ED50) was then determined.

Turning to `CC1(C)CN(C(=O)CCc2c[nH]cn2)c2ccccc21` [Example E1, monohydrochloride], the ED50 worked out at 4.2 µg/kg.
